The test system of series [1] is Differentiated U937 cells. Put plainly: MTT assay: cell viability on exposure to test compounds. The format is cell-based, human. The conditions noted are these: percentage loss of cell viability vs vehicle; for MTT Assay (Viability) 4 h d-U937: 5% FCS; for MTT Assay (Viability) 24 h d-U937: 10% FCS. The method, boiled down: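 Differentiated U937 cells were pre-incubated with compound for either 4 h in 5% FCS or 24 h in 10% FCS, then given MTT for 1 h. Formazan was dissolved in DMSO and read at 550 nm. Viability loss is expressed as % versus 0.5% DMSO vehicle, so an apparent gain appears as a negative value.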

In series [2] the test system is LPS-induced TNFα release in THP-1 cells. Put plainly: LPS-induced TNFα release in THP-1 cells. Particulars: Homo sapiens, 3 μg/mL LPS, 4 hr. The class given is cell-based. The method, boiled down: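 Human monocytic cells were stimulated with 3 μg/mL E. coli LPS for 4 hr. Supernatant TNFα was measured by sandwich ELISA. Inhibition was taken relative to vehicle control, and IC50 derived from the concentration-response curve.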

Series [3] deals with LPS-induced TNFα release in d-U937 cells. In words: LPS-induced TNFα release in d-U937 cells. The class given is cell-based. Particulars: Homo sapiens, dU937, 4 h; read-out: LPS/TNFα REC50 d-U937. The method, boiled down: (§1)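 U937 cells differentiated with PMA (100 ng/mL, 48–72 hr), pre-incubated with compound 2 hr, then stimulated with 0.1 μg/mL E. coli O111:B4 LPS for 4 hr. Supernatant TNFα and IL-8 measured by sandwich ELISA; REC50 (TNFα) and IC50 (IL-8 inhibition vs vehicle) taken from concentration-response curves.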

Series [4] deals with Poly I:C-induced ICAM-1 expression in BEAS2B cells. In words: Poly I:C-induced ICAM-1 induction in BEAS2B cells. Particulars: Homo sapiens, BEAS-2B, poly I:C 1 μg/mL, 18 hr, read-out: PolyI:C/ICAM1 IC50 BEAS2B. The class given is cell-based. The method, boiled down:
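Human bronchial epithelial BEAS2B cells were pre-incubated with compound for 2 h, then transfected with poly I:C at 1 μg/mL. Surface ICAM-1 was measured 18 h later by cell-based ELISA (OD450–655), normalised to crystal-violet cell number (OD595). IC50 was taken from the concentration–response curve against vehicle.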

Series [5] relates to LPS-induced IL-8 release in d-U937 cells. Put plainly: LPS-induced IL-8 release in d-U937 cells. The conditions noted are these: Homo sapiens, dU937, 0.1 μg/mL LPS, 4 hr. The class given is cell-based. The method, boiled down:
as §1

Series [6] has as its target T1, p38 MAPKα isoform (MAPK14: Invitrogen) (Homo sapiens, UniProt Q16539).
T1 construct: purchased Invitrogen
Put plainly: p38 MAPKα enzyme inhibition assay (FRET, Z-LYTE, via MAPKAP-K2 activation). The conditions noted are these: 2 hr pre-incubation, ATP 10.0 μM; read-out: Enzyme Inhibition IC50 p38α. The format is biochemical.

The target in series [7] is T2, Recombinant, phosphorylated p38 MAPKγ (MAPK12:Invitrogen) (Homo sapiens, UniProt P53778).
T2 construct: purchased Invitrogen
T2 sequence (P53778 1-367): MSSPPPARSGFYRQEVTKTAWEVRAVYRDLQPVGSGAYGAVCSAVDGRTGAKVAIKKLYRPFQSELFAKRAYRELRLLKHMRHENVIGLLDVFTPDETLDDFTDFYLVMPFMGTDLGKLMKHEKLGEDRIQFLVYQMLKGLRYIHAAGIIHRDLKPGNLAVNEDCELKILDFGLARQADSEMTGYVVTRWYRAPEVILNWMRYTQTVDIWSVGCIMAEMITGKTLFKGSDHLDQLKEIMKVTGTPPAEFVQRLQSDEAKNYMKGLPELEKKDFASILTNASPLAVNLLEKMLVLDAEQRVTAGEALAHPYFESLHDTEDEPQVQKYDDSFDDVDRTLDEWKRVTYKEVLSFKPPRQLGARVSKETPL
In words: p38 MAPKγ enzyme inhibition assay (FRET, Z-LYTE). The class given is biochemical. The conditions noted are these: 2 hr pre-incubation, ATP 100 μM; read-out: Enzyme Inhibition IC50 p38γ.
Procedure: The enzyme inhibitory activities of compounds disclosed herein were determined by fluorescence resonance energy transfer (FRET) using synthetic peptides labelled with both donor and acceptor fluorophores (Z-LYTE, Invitrogen Ltd., Paisley, UK). Recombinant, phosphorylated p38 MAPKγ (MAPK12:Invitrogen) was diluted in HEPES buffer, mixed with the test compound at the desired final concentrations and incubated for 2 hr at RT. The FRET peptide (2 μM) and ATP (100 μM) were added to the enzyme/compound mixture and incubated for 1 hr. Development reagent (protease) was added for 1 hr prior to detection in a fluorescence microplate reader (Varioskan® Flash, ThermoFisher Scientific). The site-specific protease cleaves non-phosphorylated peptide only and eliminates the FRET signal. Phosphorylation levels of each reaction were calculated using the ratio of coumarin emission (donor) over fluorescein emission (acceptor) for which high ratios indicate high phosphorylation and low ratios indicate low phosphorylation levels.

Marks after values point to notes of the source that are not given here. A value given as a limit tells only on which side of the number the result lay.

The values below come from patent US9024041B2, “P38 MAP kinase inhibitors” (Respivert Ltd., priority 2010, dated 2015).

T1 sequence (Q16539 whole entry, canonical isoform): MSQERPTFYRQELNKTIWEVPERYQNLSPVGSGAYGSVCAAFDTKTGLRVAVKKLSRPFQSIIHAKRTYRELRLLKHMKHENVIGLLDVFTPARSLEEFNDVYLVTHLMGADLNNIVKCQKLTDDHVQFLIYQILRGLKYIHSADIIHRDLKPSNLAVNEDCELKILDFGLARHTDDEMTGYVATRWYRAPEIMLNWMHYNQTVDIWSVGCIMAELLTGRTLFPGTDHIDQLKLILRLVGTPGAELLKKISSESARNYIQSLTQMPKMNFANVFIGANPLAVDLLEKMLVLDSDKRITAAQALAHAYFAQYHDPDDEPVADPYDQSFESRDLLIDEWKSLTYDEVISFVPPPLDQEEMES

Turning to `CCNC(=O)Nc1cc(Cc2ccc(NC(=O)Nc3cc(C(C)(C)C)nn3-c3ccc(C)cc3)c3ccccc23)ccn1` [Example 23, 1-(3-(tert-Butyl)-1-(p-tolyl)-1H-pyrazol-5-yl)-3-(4-((2-(3-ethylureido)pyridin-4-yl)methyl)naphthalen-1-yl)urea], in series [1] (10 μg/mL), the “MTT Assay (Viability) 4 h d-U937” value was 15.2^b %. Besides, the “MTT Assay (Viability) 24 h d-U937” value in series [1] (10 μg/mL) is listed as −1.7^b %. Further, the IC50 in series [2] was determined as 12.4 nM; in series [4] it was 20.3 nM; in series [5], 21.4 nM; in series [6] it was 20.3 nM; in series [7], 3010 nM. Also, in series [3], the EC50 came to 3.4 nM.
Regarding `COCC(=O)Nc1cc(Oc2ccc(NC(=O)Nc3cc(C(C)(C)C)nn3-c3ccc(O)cc3)c3ccccc23)ccn1` [Example 5, N-(4-((4-(3-(3-(tert-Butyl)-1-(4-hydroxyphenyl)-1H-pyrazol-5-yl)ureido)naphthalen-1-yl)oxy)pyridin-2-yl)-2-methoxyacetamide], the “MTT Assay (Viability) 4 h d-U937” value in series [1] (1 μg/mL) was 4.5%. Moreover, the “MTT Assay (Viability) 24 h d-U937” value in series [1] (1 μg/mL) was −19.9%. The IC50 in series [2] is 0.4 nM; in series [4], 6.7 nM; in series [5], 0.7 nM; in series [6], 1.7 nM; in series [7] it was 88.9 nM. For the same compound, in series [3], the EC50 is 0.66 nM.
Take `COc1ccc(-n2nc(C(C)(C)C)cc2NC(=O)Nc2ccc(Oc3ccnc(NC(=O)N(C)C)c3)c3ccccc23)cc1` [Example 7, 3-(4-(4-(3-(3-tert-Butyl-1-(4-methoxyphenyl)-1H-pyrazol-5-yl)ureido)naphthalen-1-yloxy)pyridin-2-yl)-1,1-dimethylurea]: in series [1] (1 μg/mL), the “MTT Assay (Viability) 4 h d-U937” value was −13.3%. In addition, in series [1] (1 μg/mL), the “MTT Assay (Viability) 24 h d-U937” value was −39.1%. The IC50 in series [2] came to 0.7 nM; in series [4], 1.9 nM; in series [5] it was 0.1 nM; in series [6], 4.1 nM; in series [7] it was 138 nM. Moreover, in series [3], the EC50 amounted to 0.03 nM.
For `COCC(=O)Nc1cc(Oc2ccc(NC(=O)Nc3cc(C(C)(C)C)nn3-c3ccc(C)nc3)c3ccccc23)ccn1` [Example 57, N-(4-(4-(3-(3-tert-butyl-1-(6-methylpyridin-3-yl)-1H-pyrazol-5-yl)ureido)naphthalen-1-yloxy)pyridin-2-yl)-2-methoxyacetamide], the “MTT Assay (Viability) 4 h d-U937” value in series [1] (1 μg/mL) is −3.4%. Further, the “MTT Assay (Viability) 24 h d-U937” value in series [1] (1 μg/mL) was 76.0%. Also, the IC50 in series [2] was 1.6 nM; in series [4] it was 8.6 nM; in series [5] it was 17.2 nM; in series [6], < 0.2 nM; in series [7] it was 246 nM. Besides, the EC50 in series [3] worked out at 0.3 nM.
In the case of `COCC(=O)Nc1cc(Sc2ccc(NC(=O)Nc3cc(C(C)(C)C)nn3-c3ccc(C)cc3)c3ccccc23)ccn1` [Example 21, N-(4-(4-(3-(3-tert-Butyl-1-p-tolyl-1H-pyrazol-5-yl)ureido)naphthalen-1-ylthio)pyridin-2-yl)-2-methoxyacetamide], the “MTT Assay (Viability) 4 h d-U937” value in series [1] (1 μg/mL) turned out to be 2.7%. Moreover, in series [1] (1 μg/mL), the “MTT Assay (Viability) 24 h d-U937” value worked out at 5.3%. Besides, the IC50 in series [2] amounted to 2.5 nM; in series [4] it was 6.3 nM; in series [5], 30.3 nM; in series [6], 26 nM; in series [7] it was 341 nM. Besides, in series [3], the EC50 worked out at 6.6 nM.
For the compound `CNC(=O)Nc1cc(Oc2ccc(NC(=O)Nc3cc(C(C)(C)C)nn3-c3ccc(O)nc3)c(C)c2C)ccn1` [Example 62, 1-(4-(4-(3-(3-tert-butyl-1-(6-hydroxypyridin-3-yl)-1H-pyrazol-5-yl)ureido)-2,3-dimethylphenoxy)pyridin-2-yl)-3-methylurea], in series [1] (1 μg/mL), the “MTT Assay (Viability) 4 h d-U937” value is listed as −1.1%. In series [1] (1 μg/mL), the “MTT Assay (Viability) 24 h d-U937” value was −2.6%. Besides, the IC50 in series [2] was 2.6 nM; in series [4], 24.6 nM; in series [5], 14.4 nM; in series [6], 14.8 nM; in series [7], 20.3 nM. Also, the EC50 in series [3] turned out to be 2.5 nM.
Regarding `CNC(=O)Nc1cc(Oc2ccc(NC(=O)Nc3cc(C(C)(C)C)nn3-c3ccc(OC)nc3)c(C)c2C)ccn1` [Example 39, 1-(4-(4-(3-(3-tert-butyl-1-(6-methoxypyridin-3-yl)-1H-pyrazol-5-yl)ureido)-2,3-dimethylphenoxy)pyridin-2-yl)-3-methylurea], the “MTT Assay (Viability) 4 h d-U937” value in series [1] (1 μg/mL) is −12.6%. Further, in series [1] (1 μg/mL), the “MTT Assay (Viability) 24 h d-U937” value was found to be 21.6%. Further, the IC50 in series [2] was 1.8 nM; in series [4] it was 2.9 nM; in series [5], 23.2 nM; in series [6], 30.7 nM; in series [7], 81.8 nM. Further, in series [3], the EC50 was 1.8 nM.
As for `CN1CCN(C(=O)Nc2cc(Oc3ccc(NC(=O)Nc4cc(C(C)(C)C)nn4-c4ccc(S(C)(=O)=O)cc4)c4ccccc34)ccn2)CC1` [Example 48, N-(4-(4-(3-(3-tert-butyl-1-(4-(methylsulfonyl)phenyl)-1H-pyrazol-5-yl)ureido)naphthalen-1-yloxy)pyridin-2-yl)-4-methylpiperazine-1-carboxamide], the “MTT Assay (Viability) 4 h d-U937” value in series [1] (1 μg/mL) is on record as −16.1%. Further, the “MTT Assay (Viability) 24 h d-U937” value in series [1] (1 μg/mL) was −11.3%. Moreover, the IC50 worked out at 3.4 nM in series [2]; 32.7 nM in series [4]; 5 nM in series [5]; 0.6 nM in series [6]; 123 nM in series [7]. The EC50 in series [3] turned out to be 2.4 nM.
Consider `COCC(=O)Nc1cc(Cc2ccc(NC(=O)Nc3cc(C(C)(C)C)nn3-c3ccc(C)cc3)c3ccccc23)ccn1` [Example 64, N-(4-((4-(3-(3-tert-butyl-1-(p-tolyl)-1H-pyrazol-5-yl)ureido)naphthalen-1-yl)methyl)pyridin-2-yl)-2-methoxyacetamide], for which the “MTT Assay (Viability) 4 h d-U937” value in series [1] (10 μg/mL) is reported as −3.7^b %. In series [1] (10 μg/mL), the “MTT Assay (Viability) 24 h d-U937” value is reported as 61.6^b %. Besides, the IC50 was 10.9 nM in series [2]; 20.1 nM in series [4]; 7.4 nM in series [5]; 17.1 nM in series [6]; 1650 nM in series [7]. For the same compound, in series [3], the EC50 came to 2.1 nM.
With `COCC(=O)Nc1cc(Oc2ccc(NC(=O)Nc3cc(C(C)(C)C)nn3-c3ccc(OC)c(OC)c3)c3ccccc23)ccn1` [Example 11, N-(4-(4-(3-(3-tert-Butyl-1-(3,4-dimethoxyphenyl)-1H-pyrazol-5-yl)ureido)naphthalen-1-yloxy)pyridin-2-yl)-2-methoxyacetamide], the “MTT Assay (Viability) 4 h d-U937” value in series [1] (1 μg/mL) is listed as −9.3%. In series [1] (1 μg/mL), the “MTT Assay (Viability) 24 h d-U937” value was −0.8%. In addition, the IC50 in series [2] came out at 0.6 nM; in series [4], 2.5 nM; in series [5] it was 3.6 nM; in series [6], 4 nM; in series [7], 151 nM. For the same compound, in series [3], the EC50 came to 0.2 nM.
Turning to `COCC(=O)Nc1cc(Oc2ccc(NC(=O)Nc3cc(C(C)(C)C)nn3-c3ccc(OC)c(Cl)c3)c3ccccc23)ccn1` [Example 54, N-(4-(4-(3-(3-tert-butyl-1-(3-chloro-4-methoxyphenyl)-1H-pyrazol-5-yl)ureido)naphthalen-1-yloxy)pyridin-2-yl)-2-methoxyacetamide], the “MTT Assay (Viability) 4 h d-U937” value in series [1] (1 μg/mL) was 0.1%. Further, the “MTT Assay (Viability) 24 h d-U937” value in series [1] (1 μg/mL) is −7.5%. The IC50 in series [2] amounted to 1.3 nM; in series [4], 0.7 nM; in series [5], 2.7 nM; in series [6], 9.1 nM; in series [7] it was 199 nM. For the same compound, in series [3], the EC50 stood at 0.2 nM.
